# Experimental data reported in PubChem BioAssay (NCI).
#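 Briefly, cells in 96-well plates were exposed to five compound concentrations for 48 h, and endpoints were estimated by linear interpolation. TGI denotes the concentration required for complete inhibition of growth.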
# Key:
# Assay in all cases: inhibition of tumour cell growth, NCI panel, 48 h
# SNB-19 CNS = test system: SNB-19 CNS
# EKVX NSCLC = test system: EKVX NSCLC
# SF-268 CNS = test system: SF-268 CNS
# SF-539 CNS = test system: SF-539 CNS
# MALME-3M melanoma = test system: MALME-3M melanoma
# KM20L2 colon = test system: KM20L2 colon
# A498 renal = test system: A498 renal
# CAKI-1 renal = test system: CAKI-1 renal
# HCT-15 colon = test system: HCT-15 colon
# HOP-62 NSCLC = test system: HOP-62 NSCLC
# OVCAR-4 ovarian = test system: OVCAR-4 ovarian
# NCI-H23 lung = test system: NCI-H23 lung
# TK-10 renal = test system: TK-10 renal
# NCI-H460 lung = test system: NCI-H460 lung
# SK-OV-3 ovarian = test system: SK-OV-3 ovarian
# NCI-H522 lung = test system: NCI-H522 lung
# HOP-92 NSCLC = test system: HOP-92 NSCLC
# MDA-N = test system: MDA-N
# HS 578T breast = test system: HS 578T breast
# MCF7 breast = test system: MCF7 breast
compound,measurement,setting,value
Clc1cc2n[se]nc2cc1Cl,TGI,SNB-19 CNS,> 100 µM
same,TGI,EKVX NSCLC,> 100 µM
same,TGI,SF-268 CNS,> 100 µM
same,TGI,SF-539 CNS,> 100 µM
same,TGI,MALME-3M melanoma,> 100 µM
same,TGI,KM20L2 colon,> 100 µM
same,TGI,A498 renal,> 100 µM
same,TGI,CAKI-1 renal,> 100 µM
same,TGI,HCT-15 colon,> 100 µM
same,TGI,HOP-62 NSCLC,> 100 µM
same,TGI,OVCAR-4 ovarian,> 100 µM
same,TGI,NCI-H23 lung,> 100 µM
same,TGI,TK-10 renal,> 100 µM
same,TGI,NCI-H460 lung,> 100 µM
same,TGI,SK-OV-3 ovarian,> 100 µM
CN1Cc2cc3c(cc2-c2ccccc21)OCO3,TGI,SNB-19 CNS,> 100 µM
same,TGI,EKVX NSCLC,> 100 µM
same,TGI,SF-268 CNS,> 100 µM
same,TGI,SF-539 CNS,> 100 µM
same,TGI,NCI-H522 lung,> 100 µM
same,TGI,KM20L2 colon,> 100 µM
same,TGI,HOP-92 NSCLC,> 100 µM
same,TGI,A498 renal,> 100 µM
same,TGI,OVCAR-4 ovarian,> 100 µM
same,TGI,NCI-H23 lung,> 100 µM
same,TGI,TK-10 renal,> 100 µM
same,TGI,NCI-H460 lung,> 100 µM
Cc1ccc2c(=O)cc(-c3ccsc3)[nH]c2n1,TGI,SNB-19 CNS,86.7 µM
same,TGI,EKVX NSCLC,> 100 µM
same,TGI,SF-268 CNS,> 100 µM
same,TGI,SF-539 CNS,33.2 µM
same,TGI,MALME-3M melanoma,> 100 µM
same,TGI,NCI-H522 lung,> 27.3 µM
same,TGI,HOP-92 NSCLC,> 100 µM
same,TGI,A498 renal,> 100 µM
same,TGI,CAKI-1 renal,> 100 µM
same,TGI,HCT-15 colon,> 62.9 µM
same,TGI,MDA-N,2.09 µM
same,TGI,HOP-62 NSCLC,> 100 µM
same,TGI,HS 578T breast,26.2 µM
same,TGI,OVCAR-4 ovarian,> 100 µM
same,TGI,NCI-H23 lung,> 25.2 µM
same,TGI,MCF7 breast,> 100 µM
same,TGI,TK-10 renal,> 100 µM
same,TGI,NCI-H460 lung,> 100 µM
same,TGI,SK-OV-3 ovarian,72.6 µM
CN(Cc1ccccc1)C(=NC#N)N(C)Cc1ccccc1,TGI,SNB-19 CNS,> 100 µM
same,TGI,EKVX NSCLC,> 100 µM
same,TGI,SF-268 CNS,> 100 µM
same,TGI,SF-539 CNS,> 100 µM
same,TGI,NCI-H522 lung,> 100 µM
same,TGI,KM20L2 colon,> 100 µM
same,TGI,HOP-92 NSCLC,> 100 µM
same,TGI,CAKI-1 renal,> 100 µM
same,TGI,HCT-15 colon,> 100 µM
same,TGI,HOP-62 NSCLC,> 100 µM
same,TGI,OVCAR-4 ovarian,> 100 µM
same,TGI,NCI-H23 lung,> 100 µM
same,TGI,TK-10 renal,> 100 µM
same,TGI,NCI-H460 lung,> 100 µM
same,TGI,SK-OV-3 ovarian,> 100 µM
Cc1nn(C)cc1P(=S)(c1ccccc1)c1ccccc1,TGI,SNB-19 CNS,> 100 µM
same,TGI,EKVX NSCLC,> 100 µM
same,TGI,SF-268 CNS,> 100 µM
same,TGI,SF-539 CNS,> 100 µM
same,TGI,MALME-3M melanoma,> 100 µM
same,TGI,KM20L2 colon,> 100 µM
same,TGI,HOP-92 NSCLC,> 100 µM
same,TGI,A498 renal,> 100 µM
same,TGI,CAKI-1 renal,> 100 µM
same,TGI,HCT-15 colon,> 100 µM
same,TGI,HOP-62 NSCLC,> 100 µM
same,TGI,OVCAR-4 ovarian,> 100 µM
same,TGI,NCI-H23 lung,> 100 µM
same,TGI,TK-10 renal,> 100 µM
same,TGI,NCI-H460 lung,> 100 µM
same,TGI,SK-OV-3 ovarian,> 100 µM
CN(C)CCCCN1c2ccccc2Sc2ccc(C(=O)c3ccccc3)cc21,TGI,SNB-19 CNS,12 µM
same,TGI,EKVX NSCLC,15.9 µM
same,TGI,SF-268 CNS,17.7 µM
same,TGI,SF-539 CNS,6.59 µM
same,TGI,MALME-3M melanoma,3.33 µM
same,TGI,NCI-H522 lung,6.84 µM
same,TGI,HOP-92 NSCLC,8.99 µM
same,TGI,A498 renal,32.5 µM
same,TGI,CAKI-1 renal,5.32 µM
same,TGI,HCT-15 colon,9.27 µM
same,TGI,MDA-N,6.74 µM
same,TGI,HOP-62 NSCLC,6.99 µM
same,TGI,HS 578T breast,9.69 µM
same,TGI,OVCAR-4 ovarian,10.8 µM
same,TGI,NCI-H23 lung,34.2 µM
same,TGI,MCF7 breast,3.05 µM
same,TGI,TK-10 renal,8.42 µM
same,TGI,NCI-H460 lung,5.46 µM
same,TGI,SK-OV-3 ovarian,27.2 µM
Cc1nn(-c2nc3ccccc3s2)c2c1C(=O)c1ccccc1-2,TGI,SNB-19 CNS,> 100 µM
same,TGI,EKVX NSCLC,> 100 µM
same,TGI,SF-268 CNS,> 100 µM
same,TGI,SF-539 CNS,> 100 µM
same,TGI,MALME-3M melanoma,> 100 µM
same,TGI,NCI-H522 lung,> 100 µM
same,TGI,KM20L2 colon,> 100 µM
same,TGI,HOP-92 NSCLC,> 100 µM
same,TGI,A498 renal,> 100 µM
same,TGI,HCT-15 colon,> 100 µM
same,TGI,HOP-62 NSCLC,> 100 µM
same,TGI,OVCAR-4 ovarian,64.1 µM
same,TGI,NCI-H23 lung,> 100 µM
same,TGI,TK-10 renal,> 100 µM
same,TGI,NCI-H460 lung,> 100 µM
same,TGI,SK-OV-3 ovarian,> 100 µM
COc1ccc2[nH]cc(CCNC(=O)[C@](O)(Cc3cn(C)c4ccccc34)[C@@]3(O)OCC(O)C3O)c2c1 (stereo not given in full),TGI,SNB-19 CNS,> 100 µM
same,TGI,EKVX NSCLC,> 100 µM
same,TGI,SF-268 CNS,> 100 µM
same,TGI,SF-539 CNS,> 100 µM
same,TGI,MALME-3M melanoma,> 100 µM
same,TGI,NCI-H522 lung,> 100 µM
same,TGI,KM20L2 colon,> 100 µM
same,TGI,HOP-92 NSCLC,> 100 µM
same,TGI,CAKI-1 renal,> 100 µM
same,TGI,HCT-15 colon,> 100 µM
same,TGI,HOP-62 NSCLC,> 100 µM
same,TGI,OVCAR-4 ovarian,> 100 µM
same,TGI,NCI-H23 lung,> 100 µM
same,TGI,TK-10 renal,> 100 µM
same,TGI,NCI-H460 lung,> 100 µM
same,TGI,SK-OV-3 ovarian,> 100 µM
O=c1[nH]cnc2c1CCCN2,TGI,SNB-19 CNS,> 100 µM
same,TGI,EKVX NSCLC,> 100 µM
same,TGI,SF-268 CNS,> 100 µM
same,TGI,MALME-3M melanoma,> 100 µM
same,TGI,NCI-H522 lung,> 100 µM
same,TGI,KM20L2 colon,> 100 µM
same,TGI,HOP-92 NSCLC,> 100 µM
same,TGI,CAKI-1 renal,> 100 µM
same,TGI,HCT-15 colon,> 100 µM
same,TGI,HOP-62 NSCLC,> 100 µM
same,TGI,NCI-H23 lung,> 100 µM
same,TGI,TK-10 renal,> 100 µM
same,TGI,SK-OV-3 ovarian,> 100 µM
Cc1ccc(NC2=N/C(=C/c3ccccc3)C(Cl)=N2)cc1,TGI,SNB-19 CNS,> 100 µM
same,TGI,EKVX NSCLC,> 100 µM
same,TGI,SF-268 CNS,> 100 µM
same,TGI,SF-539 CNS,> 100 µM
same,TGI,MALME-3M melanoma,> 100 µM
same,TGI,NCI-H522 lung,> 100 µM
same,TGI,HOP-92 NSCLC,> 100 µM
same,TGI,A498 renal,> 100 µM
same,TGI,CAKI-1 renal,> 100 µM
same,TGI,HCT-15 colon,> 100 µM
same,TGI,MDA-N,> 100 µM
same,TGI,HOP-62 NSCLC,> 100 µM
same,TGI,HS 578T breast,> 100 µM
same,TGI,OVCAR-4 ovarian,> 100 µM
same,TGI,NCI-H23 lung,> 100 µM
same,TGI,MCF7 breast,> 100 µM
same,TGI,TK-10 renal,> 100 µM
same,TGI,NCI-H460 lung,> 100 µM
same,TGI,SK-OV-3 ovarian,> 100 µM
O=[N+]([O-])c1c(C=Nc2ccccc2)oc(-c2ccc3c(c2)OCO3)c1-c1ccc2c(c1)OCO2,TGI,SNB-19 CNS,> 100 µM
same,TGI,SF-268 CNS,> 100 µM
same,TGI,SF-539 CNS,> 100 µM
same,TGI,MALME-3M melanoma,> 100 µM
same,TGI,NCI-H522 lung,> 100 µM
same,TGI,KM20L2 colon,> 100 µM
same,TGI,HOP-92 NSCLC,> 100 µM
same,TGI,CAKI-1 renal,> 100 µM
same,TGI,HCT-15 colon,> 100 µM
same,TGI,HOP-62 NSCLC,> 100 µM
same,TGI,OVCAR-4 ovarian,> 100 µM
same,TGI,NCI-H23 lung,> 100 µM
same,TGI,TK-10 renal,> 100 µM
same,TGI,NCI-H460 lung,> 100 µM
same,TGI,SK-OV-3 ovarian,> 100 µM
